Results taken from patent publication US8563540B2, “Pyrido[3,2-d]pyrimidine PI3K delta inhibitor compounds and methods of use” (Genetech, Inc., priority 2010, dated 2013).

Experiments:
p110 delta = target: T1, p110 delta (Homo sapiens, UniProt O00329); assay: PI3K Isoform Inhibition Assay, p110 delta; format: biochemical; conditions: PI3K isoform inhibition assay of Example 901
T1 construct: purchased Upstate Group, Millipore; Dundee, UK
Method: (§1) PI3K enzymatic activity was assayed by measuring the amount of product phosphatidylinositol […] (PIP3) formed from substrate 4,5 phosphatidylinositol 4,5-phosphate (PIP2) using a fluorescence polarization displacement assay. The decrease in fluorescence polarization of a fluorescent PIP3 probe is measured as it is displaced from a PIP3-binding protein GRP-1 detector by PI3K-catalyzed product. […] The kinase reactions were initiated by the addition of 40 ng/mL p110α/p85α, 300 ng/mL p110β/p85α, 40 ng/mL p110γ, or 40 ng/mL […] (Upstate Group, Millipore; Dundee, UK), and 10 μM PIP2 (Echelon Biosciences) to the wells. […] After 60 minutes of incubation at room temperature to allow equilibration of labeled and unlabeled PIP3 binding, the parallel and perpendicular components of the fluorescence emissions from each sample were measured at an excitation wavelength of 530 nm and an emission wavelength of 590 nm using an Envision fluorescent plate reader with a rhodamine filter (PerkinElmer Life and Analytical Sciences; Wellesley, Mass.). The assay is capable of detecting 0.1-2.0 μM PIP3 product. The IC50 values were obtained by fitting the dose-dependent inhibition data to a 4-parameter equation using Assay Explorer software (MDL, San Ramon, Calif.).
(§2) The Formula I compound was serially diluted in 100% DMSO. The kinase reaction was incubated for 1 h at room temperature, and the reaction was terminated by the addition of PBS. IC50 values were subsequently determined using sigmoidal dose-response curve fit (variable slope).
The four Class I PI 3-kinases are cloned into baculovirus vectors as follows: […]

p110 alpha = target: T2, p110 alpha (Homo sapiens, UniProt P42336); assay: PI3K Isoform Inhibition Assay, p110 alpha (delta/alpha selectivity); conditions: ratio of biochemical IC50 values
T2 construct: purchased Upstate Group, Millipore; Dundee, UK
T2 sequence (P42336 whole entry, canonical isoform): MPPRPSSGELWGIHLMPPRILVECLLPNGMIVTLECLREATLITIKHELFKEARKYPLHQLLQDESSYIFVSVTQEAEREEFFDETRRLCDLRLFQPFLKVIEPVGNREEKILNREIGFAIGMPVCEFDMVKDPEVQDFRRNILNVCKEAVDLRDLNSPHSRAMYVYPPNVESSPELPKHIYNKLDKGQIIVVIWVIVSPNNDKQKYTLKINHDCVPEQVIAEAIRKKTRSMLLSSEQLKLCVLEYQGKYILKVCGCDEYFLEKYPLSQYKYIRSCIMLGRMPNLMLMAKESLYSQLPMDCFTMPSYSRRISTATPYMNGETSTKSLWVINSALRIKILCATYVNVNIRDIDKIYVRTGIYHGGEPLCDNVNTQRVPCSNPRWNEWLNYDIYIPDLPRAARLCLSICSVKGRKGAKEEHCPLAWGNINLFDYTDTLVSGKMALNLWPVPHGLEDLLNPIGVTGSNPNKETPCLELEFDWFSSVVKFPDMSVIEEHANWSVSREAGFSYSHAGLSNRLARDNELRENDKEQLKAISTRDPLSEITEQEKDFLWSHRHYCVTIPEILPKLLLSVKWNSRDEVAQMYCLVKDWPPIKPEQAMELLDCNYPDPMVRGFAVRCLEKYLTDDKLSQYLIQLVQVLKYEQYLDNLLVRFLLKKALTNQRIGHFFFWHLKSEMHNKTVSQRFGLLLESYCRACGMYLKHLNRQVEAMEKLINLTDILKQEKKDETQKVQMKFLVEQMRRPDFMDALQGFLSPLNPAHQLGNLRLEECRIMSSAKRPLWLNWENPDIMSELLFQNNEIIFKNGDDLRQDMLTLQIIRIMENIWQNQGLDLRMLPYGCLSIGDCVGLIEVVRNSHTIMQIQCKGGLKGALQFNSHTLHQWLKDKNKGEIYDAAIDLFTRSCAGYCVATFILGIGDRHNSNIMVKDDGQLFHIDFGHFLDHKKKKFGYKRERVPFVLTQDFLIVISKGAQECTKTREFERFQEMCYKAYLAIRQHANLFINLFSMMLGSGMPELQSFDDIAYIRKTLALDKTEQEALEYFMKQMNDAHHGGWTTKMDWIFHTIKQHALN
T2 sequence (P27986 whole entry partner, canonical isoform): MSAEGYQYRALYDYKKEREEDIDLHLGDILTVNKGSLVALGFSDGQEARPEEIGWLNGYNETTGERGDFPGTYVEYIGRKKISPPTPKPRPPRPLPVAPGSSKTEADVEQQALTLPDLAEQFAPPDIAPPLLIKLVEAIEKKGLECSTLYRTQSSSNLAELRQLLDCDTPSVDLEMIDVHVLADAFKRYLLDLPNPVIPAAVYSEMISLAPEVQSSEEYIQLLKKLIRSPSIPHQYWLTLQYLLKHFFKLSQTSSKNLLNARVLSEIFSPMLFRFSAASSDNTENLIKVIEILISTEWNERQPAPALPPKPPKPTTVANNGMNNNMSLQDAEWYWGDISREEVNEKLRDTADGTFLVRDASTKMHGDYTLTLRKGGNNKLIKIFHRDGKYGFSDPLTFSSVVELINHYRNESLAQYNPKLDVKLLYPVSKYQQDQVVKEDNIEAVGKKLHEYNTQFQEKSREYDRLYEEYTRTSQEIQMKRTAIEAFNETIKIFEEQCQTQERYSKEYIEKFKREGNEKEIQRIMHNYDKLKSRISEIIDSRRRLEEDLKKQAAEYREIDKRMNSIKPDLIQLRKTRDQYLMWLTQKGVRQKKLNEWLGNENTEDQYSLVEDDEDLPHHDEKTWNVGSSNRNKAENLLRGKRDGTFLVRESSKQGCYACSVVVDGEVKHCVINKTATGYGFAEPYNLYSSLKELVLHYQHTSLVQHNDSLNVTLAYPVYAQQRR
Method: as §1, §2
The same protocol may be used to establish IC50 values for p110α (alpha) PI3K binding. […]

T1 sequence (O00329 whole entry, canonical isoform): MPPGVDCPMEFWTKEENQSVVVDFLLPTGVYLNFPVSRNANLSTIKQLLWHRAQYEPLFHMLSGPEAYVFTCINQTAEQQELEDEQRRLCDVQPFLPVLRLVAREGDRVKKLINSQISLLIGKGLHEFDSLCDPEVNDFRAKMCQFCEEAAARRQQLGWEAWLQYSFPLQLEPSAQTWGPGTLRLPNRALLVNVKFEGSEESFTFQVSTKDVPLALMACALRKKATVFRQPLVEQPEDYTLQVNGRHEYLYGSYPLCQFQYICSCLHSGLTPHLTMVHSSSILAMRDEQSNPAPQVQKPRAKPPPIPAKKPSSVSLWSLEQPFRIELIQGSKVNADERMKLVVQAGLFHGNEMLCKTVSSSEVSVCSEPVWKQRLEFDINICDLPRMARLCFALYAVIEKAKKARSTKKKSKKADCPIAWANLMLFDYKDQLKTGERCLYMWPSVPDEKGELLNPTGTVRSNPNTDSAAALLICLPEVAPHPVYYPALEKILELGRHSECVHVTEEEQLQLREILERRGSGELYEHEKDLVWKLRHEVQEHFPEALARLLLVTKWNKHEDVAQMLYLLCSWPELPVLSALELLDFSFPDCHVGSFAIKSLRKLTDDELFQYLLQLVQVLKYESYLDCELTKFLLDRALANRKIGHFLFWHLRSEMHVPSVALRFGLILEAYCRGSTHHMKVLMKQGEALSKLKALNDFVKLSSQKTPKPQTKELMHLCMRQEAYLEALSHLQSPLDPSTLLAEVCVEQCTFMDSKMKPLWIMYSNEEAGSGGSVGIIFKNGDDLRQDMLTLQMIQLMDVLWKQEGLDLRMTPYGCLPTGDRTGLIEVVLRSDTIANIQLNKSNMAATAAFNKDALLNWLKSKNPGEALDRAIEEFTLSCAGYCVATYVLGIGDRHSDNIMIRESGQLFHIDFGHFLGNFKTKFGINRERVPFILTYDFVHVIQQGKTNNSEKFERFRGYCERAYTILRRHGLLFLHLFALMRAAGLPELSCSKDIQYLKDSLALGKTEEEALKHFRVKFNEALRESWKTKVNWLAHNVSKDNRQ
T1 sequence (P27986 whole entry partner, canonical isoform): as the sequence (P27986 whole entry partner, canonical isoform) above

SMILES | IC50 (p110 delta) | IC50 p110 alpha/IC50 p110 delta (p110 alpha)
Cc1nc2ccccc2n1-c1nc(N2CCOCC2)c2nc(CN3CCC(C(C)(C)O)CC3)ccc2n1 [Compound 101, 2-(1-((2-(2-methyl-1H-benzo[d]imidazol-1-yl)-4-morpholinopyrido[3,2-d]pyrimidin-6-yl)methyl)piperidin-4-yl)propan-2-ol] | 12.5 nM | 33
CC(C)(O)C1CCN(Cc2ccc3nc(-n4c(C5CC5)nc5ccccc54)nc(N4CCOCC4)c3n2)CC1 [Compound 102, 2-(1-((2-(2-cyclopropyl-1H-benzo[d]imidazol-1-yl)-4-morpholinopyrido[3,2-d]pyrimidin-6-yl)methyl)piperidin-4-yl)propan-2-ol] | 7.94 nM | 71
Cc1oc2ccccc2c1-c1nc(N2CCOCC2)c2nc(CN3CCC(C(C)(C)O)CC3)ccc2n1 [Compound 103, 2-(1-((2-(2-methylbenzofuran-3-yl)-4-morpholinopyrido[3,2-d]pyrimidin-6-yl)methyl)piperidin-4-yl)propan-2-ol] | 10.5 nM | 200
CCn1c(=O)c2ccccc2n1-c1nc(N2CCOCC2)c2nc(CN3CCC(C(C)(C)O)CC3)ccc2n1 [Compound 104, 2-ethyl-1-(6-((4-(2-hydroxypropan-2-yl)piperidin-1-yl)methyl)-4-morpholinopyrido[3,2-d]pyrimidin-2-yl)-1H-indazol-3(2H)-one] | 11.8 nM | 83
Cc1cc(Nc2nc(N3CCOCC3)c3nc(CN4CCC(C(C)(C)O)CC4)ccc3n2)n[nH]1 [Compound 106, 2-(1-((2-(5-methyl-1H-pyrazol-3-ylamino)-4-morpholinopyrido[3,2-d]pyrimidin-6-yl)methyl)piperidin-4-yl)propan-2-ol] | 66.9 nM | 31
CC(C)(O)C1CCN(Cc2ccc3nc(-c4cnc(N)nc4)nc(N4CCOCC4)c3n2)CC1 [Compound 107, 2-(1-((2-(2-aminopyrimidin-5-yl)-4-morpholinopyrido[3,2-d]pyrimidin-6-yl)methyl)piperidin-4-yl)propan-2-ol] | 2.57 nM | 5.4
OCc1ccc2nc(-c3c(F)ccc4[nH]ccc34)nc(N3CCOCC3)c2n1 [Compound 108, (2-(5-fluoro-1H-indol-4-yl)-4-morpholinopyrido[3,2-d]pyrimidin-6-yl)methanol] | 26.5 nM | 13.5
CC(C)(O)C1CCN(Cc2ccc3nc(-c4cccc5[nH]ccc45)nc(N4CCOCC4)c3n2)CC1 [Compound 109, 2-(1-((2-(1H-indol-4-yl)-4-morpholinopyrido[3,2-d]pyrimidin-6-yl)methyl)piperidin-4-yl)propan-2-ol] | 2.82 nM | >350
CC(C)(O)C1CCN(Cc2ccc3nc(-c4cccc5[nH]ncc45)nc(N4CCOCC4)c3n2)CC1 [Compound 110, 2-(1-((2-(1H-indazol-4-yl)-4-morpholinopyrido[3,2-d]pyrimidin-6-yl)methyl)piperidin-4-yl)propan-2-ol] | 6.32 nM | 21
Fc1ccc2[nH]ccc2c1-c1nc(N2CCOCC2)c2nc(CN3CC(C4CCOCC4)C3)ccc2n1 [Compound 111, 4-(2-(5-fluoro-1H-indol-4-yl)-6-((3-(tetrahydro-2H-pyran-4-yl)azetidin-1-yl)methyl)pyrido[3,2-d]pyrimidin-4-yl)morpholine] | 5.32 nM | 281
CC(C)c1nc2ccccc2n1-c1nc(N2CCOCC2)c2nc(CN3CC(C4CCOCC4)C3)ccc2n1 [Compound 113, 4-(2-(2-isopropyl-1H-benzo[d]imidazol-1-yl)-6-((3-(tetrahydro-2H-pyran-4-yl)azetidin-1-yl)methyl)pyrido[3,2-d]pyrimidin-4-yl)morpholine] | 8.52 nM | 28.4
CO[C@H](C)c1nc2ccccc2n1-c1nc(N2CCOCC2)c2nc(CN3CCC(C(C)(C)O)CC3)ccc2n1 [Compound 115, (R)-2-(1-((2-(2-(1-methoxyethyl)-1H-benzo[d]imidazol-1-yl)-4-morpholinopyrido[3,2-d]pyrimidin-6-yl)methyl)piperidin-4-yl)propan-2-ol] | 7.11 nM | 58
Cc1nc(N)ccc1-c1nc(N2CCOCC2)c2nc(CN3CCC(C(C)(C)O)CC3)ccc2n1 [Compound 116, 2-(1-((2-(6-amino-2-methylpyridin-3-yl)-4-morpholinopyrido[3,2-d]pyrimidin-6-yl)methyl)piperidin-4-yl)propan-2-ol] | 9.33 nM | 43
COC(=O)C(C)(C)N1CC(Cc2ccc3nc(-n4c(C(C)C)nc5ccccc54)nc(N4CCOCC4)c3n2)C1 [Compound 117, methyl 2-(3-((2-(2-isopropyl-1H-benzo[d]imidazol-1-yl)-4-morpholinopyrido[3,2-d]pyrimidin-6-yl)methyl)azetidin-1-yl)-2-methylpropanoate] | 5.09 nM | 37
CC(C)(O)C1CCN(C(=O)c2ccc3nc(-c4c(F)ccc5[nH]ccc45)nc(N4CCOCC4)c3n2)CC1 [Compound 118, (2-(5-fluoro-1H-indol-4-yl)-4-morpholinopyrido[3,2-d]pyrimidin-6-yl)(4-(2-hydroxypropan-2-yl)piperidin-1-yl)methanone] | 13 nM | 77
CC(C)c1nc2ccccc2n1-c1nc(N2CCOCC2)c2nc(C(=O)N3CCC(C(C)(C)O)CC3)ccc2n1 [Compound 119, (4-(2-hydroxypropan-2-yl)piperidin-1-yl)(2-(2-isopropyl-1H-benzo[d]imidazol-1-yl)-4-morpholinopyrido[3,2-d]pyrimidin-6-yl)methanone] | 87.8 nM | 15
CC(F)(F)c1nc2ccccc2n1-c1nc(N2CCOCC2)c2nc(CN3CCC(C(C)(C)O)CC3)ccc2n1 [Compound 120, 2-(1-((2-(2-(1,1-difluoroethyl)-1H-benzo[d]imidazol-1-yl)-4-morpholinopyrido[3,2-d]pyrimidin-6-yl)methyl)piperidin-4-yl)propan-2-ol] | 2.31 nM | 45
CC(C)(C(N)=O)N1CCN(Cc2ccc3nc(-c4c(F)ccc5[nH]ccc45)nc(N4CCOCC4)c3n2)CC1 [Compound 121, 2-(4-((2-(5-fluoro-1H-indol-4-yl)-4-morpholinopyrido[3,2-d]pyrimidin-6-yl)methyl)piperazin-1-yl)-2-methylpropanamide] | 1.29 nM | 203
CC(C)(O)C1CCN(Cc2ccc3nc(-c4ccc(N)nc4)nc(N4CCOCC4)c3n2)CC1 [Compound 122, 2-(1-((2-(6-aminopyridin-3-yl)-4-morpholinopyrido[3,2-d]pyrimidin-6-yl)methyl)piperidin-4-yl)propan-2-ol] | 5.42 nM | 15
CC(C)(C(N)=O)N1CCN(Cc2ccc3nc(-c4c[nH]c5ccccc45)nc(N4CCOCC4)c3n2)CC1 [Compound 123, 2-(4-((2-(1H-indol-3-yl)-4-morpholinopyrido[3,2-d]pyrimidin-6-yl)methyl)piperazin-1-yl)-2-methylpropanamide] | 4.48 nM | 55
CC(C)(C(N)=O)N1CCN(Cc2ccc3nc(-c4ccc(N)nc4)nc(N4CCOCC4)c3n2)CC1 [Compound 124, 2-(4-((2-(6-aminopyridin-3-yl)-4-morpholinopyrido[3,2-d]pyrimidin-6-yl)methyl)piperazin-1-yl)-2-methylpropanamide] | 2.03 nM | 14
Fc1ccc2[nH]ccc2c1-c1nc(N2CCOCC2)c2nc(CN3CC(N4CCC(F)(F)CC4)C3)ccc2n1 [Compound 125, 4-(6-((3-(4,4-difluoropiperidin-1-yl)azetidin-1-yl)methyl)-2-(5-fluoro-1H-indol-4-yl)pyrido[3,2-d]pyrimidin-4-yl)morpholine] | 1.52 nM | 246
Fc1ccc2[nH]ccc2c1-c1nc(N2CCOCC2)c2nc(CN3CC(N4CCOCC4)C3)ccc2n1 [Compound 126, 4-(1-((2-(5-fluoro-1H-indol-4-yl)-4-morpholinopyrido[3,2-d]pyrimidin-6-yl)methyl)azetidin-3-yl)morpholine] | 1.14 nM | 257
O=C1CN(C2CN(Cc3ccc4nc(-c5c(F)ccc6[nH]ccc56)nc(N5CCOCC5)c4n3)C2)CCN1 [Compound 127, 4-(1-((2-(5-fluoro-1H-indol-4-yl)-4-morpholinopyrido[3,2-d]pyrimidin-6-yl)methyl)azetidin-3-yl)piperazin-2-one] | 1.75 nM | 141
CC(C)(O)C1CCN(Cc2ccc3nc(-n4ccc5ccccc54)nc(N4CCOCC4)c3n2)CC1 [Compound 128, 2-(1-((2-(1H-indol-1-yl)-4-morpholinopyrido[3,2-d]pyrimidin-6-yl)methyl)piperidin-4-yl)propan-2-ol] | 81.9 nM | 26
